Data: patent US5705662A, “17-(3-imino-2-alkylpropenyl)-5β, 14β-androstane derivatives active on the cardiovascular system, processes for their preparation and pharmaceutical compositions containing same” (Sigma-Tau Industrie Farmaceutiche Riunite S.p.A., priority 1994, dated 1998)

What was measured:
[1] = J. Med. Chem. 1978, 21, 284; Quant. Struct.-Act. Relat. 1988, 7, 160; cited from earlier work
[2] = test system: Na^+,K^+ -ATPase; conditions: J. Med. Chem. 1978, 21, 284; Quant. Struct.-Act. Relat. 1988, 7, 160; DE 4,227,605; DE 4,227,626; cited from earlier work
[3] = biological target: T1, Na^+,K^+ -ATPase (Canis lupus familiaris, UniProt P50997); experiment: inhibition of the activity of the purified Na+,K+-ATPase (% hydrolysis of 32P-ATP); type: biochemical
T1 construct: Na^+,K^+ -ATPase receptor purified according to Jorghensen; from tissue
Source text: (§1) To test the affinity for the receptor site of the Na^+,K^+ -ATPase and the agonist or antagonist activity on the enzyme, the following tests were used:
b) inhibition of the activity of the purified Na^+,K^+ -ATPase measured as % of hydrolysis of ^32 P-ATP in presence and in absence of the tested compound (Doucet A. et al. Am. J. Physiol., 1986, 251, F851)

[4] = biological target: T1, Na^+,K^+ -ATPase; experiment: displacement of the specific 3H-ouabain binding from the purified Na+,K+-ATPase receptor
Source text: as §1
a) displacement of the specific ^3 H-ouabain binding from the Na^+,K^+ -ATPase receptor purified according to Jorghensen (Jorghensen P., BBA. 1974, 356, 36) and Erdmann (Erdmann E. et al., Arzneim. Forsh., 1984, 34, 1314);

[5] = purified Na+,K+-ATPase, 32P-ATP hydrolysis, read-out: Inhibitory Activity log IC50 (converted)
[6] = 3H-ouabain displacement, purified Na+,K+-ATPase, read-out: Binding ^3 H-Ouab. Displacement log IC50 (converted)

C[C@]12CC[C@H](O)C[C@H]1CC[C@@H]1[C@@H]2CC[C@]2(C)C(=NNC(=N)N)CC[C@]12O [17-guanidinoimino-5β-androstane-3β,14β-diol]
positive inotropic activity (in words) [1]: weak positive inotropic agents
inhibition of Na+,K+-ATPase (in words) [2]: weak inhibitors of Na^+,K^+ -ATPase

CC(/C=N/NC1=NCCN1)=C\[C@H]1CC[C@]2(O)[C@@H]3CC[C@@H]4C[C@@H](O)CC[C@]4(C)[C@H]3CC[C@]12C [Comp. I-ab, (E,E)-17β-[3-(2-Imidazolin-2-yl)hydrazono-2-methyl-1-propenyl]-5β-androstane-3β,14β-diol]
IC50 [3, 5]: 3160 nM
IC50 [4, 6]: 63.1 nM

CC(/C=N/NC1=NCCN1C)=C\[C@H]1CC[C@]2(O)[C@@H]3CC[C@@H]4C[C@@H](O)CC[C@]4(C)[C@H]3CC[C@]12C [Comp. I-ac, (E,E)-17β-[3-(1-Methyl-2-imidazolin-2-yl)hydrazono-2-methyl-1-propenyl]-5β-androstane-3β,14β-diol]
IC50 [3]: 3980 nM
IC50 [4, 6]: 316 nM

CC(/C=N/NC1=NCCCN1)=C\[C@H]1CC[C@]2(O)[C@@H]3CC[C@@H]4C[C@@H](O)CC[C@]4(C)[C@H]3CC[C@]12C [Comp. I-ad, (E,E)-17β-[3-(1,4,5,6-Tetrahydro-2-pyrimidinyl)hydrazono-2-methyl-1-propenyl]-5β-androstane-3β,14β-diol]
IC50 [3]: 2510 nM
IC50 [4, 6]: 63.1 nM

CC(/C=N/NC(=N)NCCN(C)C)=C\[C@H]1CC[C@]2(O)[C@@H]3CC[C@@H]4C[C@@H](O)CC[C@]4(C)[C@H]3CC[C@]12C [Comp. I-ae, (E,E)-17β-{3-[3-(2-Dimethylaminoethyl)guanidinoimino]-2-methyl-1-propenyl}-5β-androstane-3β,14β-diol]
IC50 [3]: 6310 nM
IC50 [4]: 501 nM

CC(/C=N/OCCCN)=C\[C@H]1CC[C@]2(O)[C@@H]3CC[C@@H]4C[C@@H](O)CC[C@]4(C)[C@H]3CC[C@]12C [Comp. I-ag]
IC50 [3, 5]: 50.1 nM
IC50 [4, 6]: 25.1 nM

CC(/C=N/OCCN(C)C)=C\[C@H]1CC[C@]2(O)[C@@H]3CC[C@@H]4C[C@@H](O)CC[C@]4(C)[C@H]3CC[C@]12C [Comp. I-ah, (E,E)-17β-[3-(2-Dimethylaminoethoxyimino)-2-methyl-1-propenyl]-5β-androstane-3β,14β-diol]
IC50 [3, 5]: 63.1 nM
IC50 [4, 6]: 20 nM

CC(/C=N/OCCCN(C)C)=C\[C@H]1CC[C@]2(O)[C@@H]3CC[C@@H]4C[C@@H](O)CC[C@]4(C)[C@H]3CC[C@]12C [Comp. I-ai, (E,E)-17β-[3-(3-Dimethylaminopropoxyimino)-2-methyl-1-propenyl]-5β-androstane-3β,14β-diol]
IC50 [3, 5]: 63.1 nM
IC50 [4, 6]: 31.6 nM

CC(/C=N/OCCNC(=N)N)=C\[C@H]1CC[C@]2(O)[C@@H]3CC[C@@H]4C[C@@H](O)CC[C@]4(C)[C@H]3CC[C@]12C [Comp. I-aj, (E,E)-17β-[3-(2-Guanidinoethoxyimino)-2-methyl-1-propenyl]-5β-androstane-3β,14β-diol]
IC50 [3, 5]: 126 nM
IC50 [4]: 50.1 nM

CC(/C=N/OCCCNC(=N)N)=C\[C@H]1CC[C@]2(O)[C@@H]3CC[C@@H]4C[C@@H](O)CC[C@]4(C)[C@H]3CC[C@]12C [Comp. I-ak, (E,E)-17β-[3-(3-Guanidinopropoxyimino)-2-methyl-1-propenyl]-5β-androstane-3β,14β-diol]
IC50 [3]: 200 nM
IC50 [4, 6]: 63.1 nM

CCC(/C=N/NC(=N)N)=C\[C@H]1CC[C@]2(O)[C@@H]3CC[C@@H]4C[C@@H](O)CC[C@]4(C)[C@H]3CC[C@]12C [Comp. I-al, (E,E)-17β-(3-Guanidinoimino-2-ethyl-1-propenyl)-5β-androstane-3β,14β-diol]
IC50 [3]: 1000 nM
IC50 [4]: 126 nM

CCC(/C=N/OCCN)=C\[C@H]1CC[C@]2(O)[C@@H]3CC[C@@H]4C[C@@H](O)CC[C@]4(C)[C@H]3CC[C@]12C [Comp. I-am, (E,E)-17β-[3-(2-Aminoethoxyimino)-2-ethyl-1-propenyl]-5β-androstane-3β,14β-diol]
IC50 [3, 5]: 126 nM
IC50 [4, 6]: 63.1 nM

CCC(/C=N/OCCCN)=C\[C@H]1CC[C@]2(O)[C@@H]3CC[C@@H]4C[C@@H](O)CC[C@]4(C)[C@H]3CC[C@]12C [Comp. I-an, (E,E)-17β-[3-(3-Aminopropoxyimino)-2-ethyl-1-propenyl]-5β-androstane-3β,14β-diol]
IC50 [3, 5]: 316 nM
IC50 [4]: 100 nM

CCC(/C=N/OCCN(C)C)=C\[C@H]1CC[C@]2(O)[C@@H]3CC[C@@H]4C[C@@H](O)CC[C@]4(C)[C@H]3CC[C@]12C [Comp. I-ao, (E,E)-17β-[3-(2-Dimethylaminoethoxyimino)-2-ethyl-1-propenyl]-5β-androstane-3β,14β-diol]
IC50 [3, 5]: 501 nM
IC50 [4]: 126 nM

CCC(/C=N/OCCCN(C)C)=C\[C@H]1CC[C@]2(O)[C@@H]3CC[C@@H]4C[C@@H](O)CC[C@]4(C)[C@H]3CC[C@]12C [Comp. I-ap, (E,E)-17β-[3-(3-Dimethylaminopropoxyimino)-2-ethyl-1-propenyl]-5β-androstane-3β,14β-diol]
IC50 [3, 5]: 631 nM
IC50 [4]: 200 nM

CC(/C=N/NC(=N)N)=C\[C@@]1(O)CC[C@]2(O)[C@@H]3CC[C@@H]4C[C@@H](O)CC[C@]4(C)[C@H]3CC[C@]12C [Comp. I-aq, (E,E)-17β-(3-Guanidinoimino-2-methyl-1-propenyl]-5β-androstane-3β,14β,17α-triol]
IC50 [3]: 3980 nM
IC50 [4, 6]: 398 nM

CC(/C=N/OCCN)=C\[C@@]1(O)CC[C@]2(O)[C@@H]3CC[C@@H]4C[C@@H](O)CC[C@]4(C)[C@H]3CC[C@]12C [Comp. I-ar, (E,E)-17β-[3-(2-Aminoethoxyimino)-2-methyl-1-propenyl]-5β-androstane-3β,14β,17α-triol]
IC50 [3]: 2510 nM
IC50 [4, 6]: 316 nM

CC(/C=N/OCCN(C)C)=C\[C@@]1(O)CC[C@]2(O)[C@@H]3CC[C@@H]4C[C@@H](O)CC[C@]4(C)[C@H]3CC[C@]12C [Comp. I-as, (E,E)-17β-[3-(2-Dimethylaminoethoxyimino)-2-methyl-1-propenyl]-5β-androstane-3β,14β,17α-triol]
IC50 [3]: 3160 nM
IC50 [4, 6]: 398 nM

CC(/C=N/NC(=N)N)=C\[C@H]1CC[C@]2(O)[C@@H]3CC[C@@H]4C[C@@H](OCCN5CCCC5)CC[C@]4(C)[C@H]3CC[C@]12C [Comp. I-at, (E,E)-36-[2-(1-Pyrrolidinyl)ethoxy]-17β-(3-guanidinoimino-2-methyl-1-propenyl]-5β-androstane-14β-ol]
IC50 [3, 5]: 158 nM
IC50 [4]: 39.8 nM

CC(/C=N/OCCN)=C\[C@H]1CC[C@]2(O)[C@@H]3CC[C@@H]4C[C@@H](OCCN5CCCC5)CC[C@]4(C)[C@H]3CC[C@]12C [Comp. I-au]
IC50 [3, 5]: 39.8 nM
IC50 [4, 6]: 20 nM

CC(/C=N/NC(=N)N)=C\[C@H]1CC[C@]2(O)[C@@H]3CC[C@@H]4C[C@@H](OCCCN5CCCC5)CC[C@]4(C)[C@H]3CC[C@]12C [Comp. I-av]
IC50 [3, 5]: 200 nM
IC50 [4]: 50.1 nM

CC(/C=N/OCCN)=C\[C@H]1CC[C@]2(O)[C@@H]3CC[C@@H]4C[C@@H](OCC(C)N5CCCC5)CC[C@]4(C)[C@H]3CC[C@]12C (stereo partly drawn) [Comp. I-aw, (E,E)-3β-[2-(1-Pyrrolidinyl)propoxy]-17β-[3-(2-aminoethoxyimino)-2-methyl-1-propenyl]-5β-androstane-14β-ol]
IC50 [3, 5]: 63.1 nM
IC50 [4, 6]: 25.1 nM

CC(/C=N/OCCN)=C\[C@H]1CC[C@]2(O)[C@@H]3CC[C@@H]4C[C@@H](OCCN)CC[C@]4(C)[C@H]3CC[C@]12C [Comp. I-ay, (E,E)-3β-(2-Aminoethoxy)-17β-[3-(2-aminoethoxyimino)-2-methyl-1-propenyl]-5β-androstane-14β-ol]
IC50 [3, 5]: 31.6 nM
IC50 [4, 6]: 25.1 nM

CC(/C=N/NC(=N)N)=C\[C@H]1CC[C@]2(O)[C@@H]3CC[C@@H]4C[C@@H](OCCCN)CC[C@]4(C)[C@H]3CC[C@]12C [Comp. I-az]
IC50 [3, 5]: 31.6 nM
IC50 [4, 6]: 25.1 nM

CC(/C=N/OCCN)=C\[C@H]1CC[C@]2(O)[C@@H]3CC[C@@H]4C[C@@H](OCCCN)CC[C@]4(C)[C@H]3CC[C@]12C [Comp. I-ba]
IC50 [3, 5]: 39.8 nM
IC50 [4, 6]: 20 nM

CC(/C=N/NC(=N)N)=C\[C@H]1CC[C@]2(O)[C@@H]3CC[C@@H]4C[C@H](O)CC[C@]4(C)[C@H]3CC[C@]12C [Comp. I-bb, (E,E)-17β-(3-Guanidinoimino-2-methyl-1-propenyl)-5β-androstane-3α,14β-diol]
IC50 [3]: 3160 nM
IC50 [4]: 631 nM

CC(/C=N/OCCN)=C\[C@H]1CC[C@]2(O)[C@@H]3CC[C@@H]4C[C@H](O)CC[C@]4(C)[C@H]3CC[C@]12C [Comp. I-bc, (E,E)-17β-[3-(2-Aminoethoxyimino)-2-methyl-1-propenyl]-5β-androstane-3α,14β-diol]
IC50 [3]: 2510 nM
IC50 [4]: 501 nM

CC(/C=N/OCCN)=C\[C@H]1CC[C@]2(O)[C@@H]3CC[C@@H]4C[C@H](OCCN5CCCC5)CC[C@]4(C)[C@H]3CC[C@]12C [Comp. I-bd]
IC50 [3]: 3160 nM
IC50 [4]: 501 nM

CC(/C=N/OCCN)=C\[C@H]1CC[C@]2(O)[C@@H]3CC[C@@H]4C[C@H](OCCCN)CC[C@]4(C)[C@H]3CC[C@]12C [Comp. I-be, (E,E)-3α-(3-Aminopropoxy)-17β-[3-(2-aminoethoxyimino)-2-methyl-1-propenyl]-5β-androstane-14β-ol]
IC50 [3]: 3980 nM
IC50 [4]: 631 nM

CC(/C=N/NC(=N)N)=C\[C@H]1CC[C@]2(O)[C@@H]3CC[C@@H]4C[C@@H](OCCN)CC[C@]4(C)[C@H]3CC[C@]12C [I-ax]
IC50 [3, 5]: 39.8 nM
IC50 [4, 6]: 25.1 nM
